Results as given in patent US6500613B1, “Pneumococcal surface proteins and uses thereof” (priority 1995, dated 2002).
Where two headings read alike, the source gives them in different places.

Tests used:
pspA = experiment: Amplification of pspA by PCR with oligonucleotides as 5' primers and 3' primer LSM2 (Example 11); set-up: species or system Streptococcus pneumoniae; conditions: 5′ primer in combination with 3′-primer LSM2, 14 strains
Experimental: These oligonucleotides were synthesized by Oligos, Etc.
PCR was done with an MJ Research, Inc., Programmable Thermal Cycler (Watertown, Mass.), using approximately 10 ng of genomic pneumococcal DNA as template with designated 5′ and 3′ primer pairs. The sample was brought to a total volume of 50 μl containing a final concentration of 50 mM KCl, 10 mM Tris-HCl (pH 8.3), 1.5 mM MgCl2, 0.01% gelatin, 0.5 μM of each primer, 200 μM of each deoxynucleoside triphosphate, and 2.5 U of Taq DNA polymerase. The samples were denatured at 94° C. for 2 minutes and subjected to 10 cycles consisting of: 1 min at 94° C., 2 min at 50° C., and 3 min at 72° C., followed by 20 cycles of: 1 min at 94° C., 2 min at 60° C., and 3 min at 72° C. After 30 total cycles, the samples were held at 72° C. for an additional 5 min prior to cooling to 4° C. The amplicons were then analyzed by agarose gel electrophoresis.

[1] = test system: S. pneumoniae isolates MC25, MC26, MC27, MC28; type: cell-based, Streptococcus pneumoniae

Substance | Amplified/Tested (pspA) | Percent Amplified (pspA) [%] | Penicillin MIC ([1]; isolate MC25) [µg/mL] | Penicillin MIC ([1]; isolate MC26) [µg/mL] | Penicillin MIC ([1]; isolate MC27) [µg/mL] | Penicillin MIC ([1]; isolate MC28) [µg/mL]
LSM111 (DNA CCGGATCCAGCTCCTGCACCAAAAC; chemistry not given here) | 14/14 | 100 |  |  |  | 
Penicillin |  |  | 1 | 4 | 1 | 2
